Here are results for 13 compounds from patent US11339130B1 (Blade Therapeutics, Inc., priority 2016, dated 2022).

Where two headings read alike, the source gives them in different places.

One assay has as its target T1, Human Calpain 1/NS1 (Homo sapiens, UniProt P07384).
T1 sequence (P07384 1-714): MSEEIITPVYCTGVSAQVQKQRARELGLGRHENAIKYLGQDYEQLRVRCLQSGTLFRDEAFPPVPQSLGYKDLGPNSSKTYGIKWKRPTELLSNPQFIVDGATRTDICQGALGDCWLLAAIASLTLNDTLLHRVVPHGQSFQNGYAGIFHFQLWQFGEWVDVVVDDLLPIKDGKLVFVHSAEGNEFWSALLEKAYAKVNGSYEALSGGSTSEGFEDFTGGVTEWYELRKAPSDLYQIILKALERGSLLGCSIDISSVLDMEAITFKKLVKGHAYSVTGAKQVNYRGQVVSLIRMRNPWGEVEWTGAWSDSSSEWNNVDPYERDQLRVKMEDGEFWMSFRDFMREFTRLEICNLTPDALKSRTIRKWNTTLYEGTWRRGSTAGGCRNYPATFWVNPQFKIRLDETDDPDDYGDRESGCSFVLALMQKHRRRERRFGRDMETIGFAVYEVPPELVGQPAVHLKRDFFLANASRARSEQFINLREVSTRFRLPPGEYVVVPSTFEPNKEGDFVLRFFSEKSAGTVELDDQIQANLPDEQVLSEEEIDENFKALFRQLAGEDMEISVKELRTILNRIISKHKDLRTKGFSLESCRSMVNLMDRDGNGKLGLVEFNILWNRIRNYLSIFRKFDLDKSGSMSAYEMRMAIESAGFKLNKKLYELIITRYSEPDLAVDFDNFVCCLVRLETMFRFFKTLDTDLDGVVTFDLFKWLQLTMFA
T1 sequence (P04632 1-268 partner): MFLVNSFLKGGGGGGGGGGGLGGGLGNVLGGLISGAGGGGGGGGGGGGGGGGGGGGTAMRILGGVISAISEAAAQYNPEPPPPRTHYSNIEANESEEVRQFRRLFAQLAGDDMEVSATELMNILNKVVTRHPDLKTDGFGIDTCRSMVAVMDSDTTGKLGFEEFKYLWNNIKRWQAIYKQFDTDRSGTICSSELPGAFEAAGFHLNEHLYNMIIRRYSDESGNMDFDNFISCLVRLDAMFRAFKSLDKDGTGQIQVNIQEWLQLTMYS
Nature of the assay: Calpain inhibition continuous fluorescence (FRET) assay, Human Calpain 1/NS1. The class given is biochemical. As to conditions: read-out: Human Calpain 1/NS1 IC50. Put shortly: (§1)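 Continuous FRET read (ex 490/em 520 nm, 10 min) of calpain 1, 2 or 9 cleaving an internally quenched 5-FAM peptide, triggered by substrate with CaCl2 after enzyme–inhibitor incubation at ambient 25 °C, pH 7.5 Tris/NaCl/DTT buffer. IC50 from initial rates (1-5 min) via 4-parameter fit.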

For the next assay, the target named is T2, Human Calpain 2/NS1 (Homo sapiens, UniProt P17655).
T2 sequence (P17655 1-700): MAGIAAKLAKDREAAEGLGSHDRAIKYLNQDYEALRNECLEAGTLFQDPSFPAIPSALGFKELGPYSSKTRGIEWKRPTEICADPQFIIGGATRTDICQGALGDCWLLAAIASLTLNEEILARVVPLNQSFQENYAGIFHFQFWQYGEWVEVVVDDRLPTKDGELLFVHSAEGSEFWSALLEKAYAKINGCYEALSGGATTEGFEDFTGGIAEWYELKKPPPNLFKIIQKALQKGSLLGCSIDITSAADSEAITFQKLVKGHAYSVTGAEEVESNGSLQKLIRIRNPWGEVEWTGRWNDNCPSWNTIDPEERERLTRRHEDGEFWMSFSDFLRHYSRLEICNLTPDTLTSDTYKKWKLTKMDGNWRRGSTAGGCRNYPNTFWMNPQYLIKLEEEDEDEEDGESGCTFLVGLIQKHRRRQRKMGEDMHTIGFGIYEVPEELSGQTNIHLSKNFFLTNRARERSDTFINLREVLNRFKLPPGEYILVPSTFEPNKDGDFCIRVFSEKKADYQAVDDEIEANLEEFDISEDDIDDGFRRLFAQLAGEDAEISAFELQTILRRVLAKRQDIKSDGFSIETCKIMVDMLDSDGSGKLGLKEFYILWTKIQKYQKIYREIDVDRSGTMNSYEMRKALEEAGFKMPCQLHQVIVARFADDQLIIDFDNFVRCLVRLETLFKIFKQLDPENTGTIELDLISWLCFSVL
T2 sequence (P04632 1-268 partner): T1 sequence (P04632 1-268 partner)
The assay is described as follows: Calpain inhibition continuous fluorescence (FRET) assay, Human Calpain 2/NS1. The class given is biochemical. Conditions: read-out: Human Calpain 2/NS1 IC50. Put shortly: as §1

In a further assay the target is T3, Human Calpain 9/NS1 (Homo sapiens, UniProt O14815).
T3 sequence (O14815 1-690): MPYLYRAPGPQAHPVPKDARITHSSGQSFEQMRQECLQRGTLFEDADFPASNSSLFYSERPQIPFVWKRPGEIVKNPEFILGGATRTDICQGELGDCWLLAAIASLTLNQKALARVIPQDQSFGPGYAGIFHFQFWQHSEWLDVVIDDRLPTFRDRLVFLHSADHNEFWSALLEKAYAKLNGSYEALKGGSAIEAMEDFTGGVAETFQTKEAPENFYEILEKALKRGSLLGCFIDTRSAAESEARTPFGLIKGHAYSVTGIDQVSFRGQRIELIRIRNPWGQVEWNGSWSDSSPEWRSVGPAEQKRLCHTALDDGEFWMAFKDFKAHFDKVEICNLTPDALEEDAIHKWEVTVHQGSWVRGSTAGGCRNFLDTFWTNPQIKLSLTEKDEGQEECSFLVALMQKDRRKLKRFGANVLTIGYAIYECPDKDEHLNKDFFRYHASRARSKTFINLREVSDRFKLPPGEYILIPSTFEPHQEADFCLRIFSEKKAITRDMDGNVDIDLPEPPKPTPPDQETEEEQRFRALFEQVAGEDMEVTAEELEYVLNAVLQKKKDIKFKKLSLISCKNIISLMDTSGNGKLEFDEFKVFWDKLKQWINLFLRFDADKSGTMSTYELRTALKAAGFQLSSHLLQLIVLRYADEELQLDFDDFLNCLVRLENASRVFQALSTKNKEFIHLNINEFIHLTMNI
T3 sequence (P04632 1-268 partner): T1 sequence (P04632 1-268 partner)
Nature of the assay: Calpain inhibition continuous fluorescence (FRET) assay, Human Calpain 9/NS1. The class given is biochemical. As to conditions: read-out: Human Calpain 9/NS1 IC50. In a few lines:
as §1

Assay [1] concerns Calpain activity in SH-SY5Y cells (SBDP-150). The assay is described as follows: SH-SY5Y Spectrin western blot assay (SBDP-150 breakdown product, A23187-induced). The class given is cell-based. Conditions: SH-SY5Y cells, read-out: SH-SY5Y Spectrin IC50. Background: In western blotting, separated proteins are transferred to a membrane and probed.
In assay [2] the test system is Calpain activity in SH-SY5Y cells. Nature of the assay: SH-SY5Y + AMC fluorescence assay (Suc-LLVY-AMC substrate). The class given is cell-based. Conditions: read-out: SH-SY5Y + AMC IC50.
The mark [3] stands for this setting: Homo sapiens, A23187-induced SBDP-150, western blot.
The mark [4] stands for this setting: Homo sapiens, Column D, A23187-induced SBDP-150.

On to “Methyl (S)-(4-(5-((4-amino-3,4-dioxo-1-phenylbutan-2-yl)carbamoyl)-3-methyl-1H-pyrazol-1-yl)benzyl)carbamate [Compound 161]”, for which the IC50 is < 3 µM at Human Calpain 1/NS1 (Column A); < 3 µM at Human Calpain 2/NS1 (Column B); < 3 µM on Human Calpain 9/NS1 (Column C); < 10 µM in assay [1] (Column D, A23187-induced SBDP-150); > 25 µM in assay [2] (Column E).

On to `Cn1cc(C(=O)NC(Cc2ccccc2)C(=O)C(N)=O)c(-c2cncc3ccccc23)n1` (centres unmarked) [Compound 591, N-(4-amino-3,4-dioxo-1-phenylbutan-2-yl)-3-(isoquinolin-4-yl)-1-methyl-1 h-pyrazole-4-carboxamide], for which the IC50 at Human Calpain 1/NS1 is < 3 µM; on Human Calpain 2/NS1, < 3 µM; on Human Calpain 9/NS1, < 3 µM; in assay [1] (setting [3]), > 25 µM; in assay [2] it was > 25 µM.

Take `Cc1cc(C(=O)N[C@@H](Cc2ccccc2)C(=O)C(N)=O)n(-c2ccc(-c3ccccc3)cc2)n1` [Compound 83, (S)-1-([1,1′-biphenyl]-4-yl)-N-(4-amino-3,4-dioxo-1-phenylbutan-2-yl)-3-methyl-1H-pyrazole-5-carboxamide]: the IC50 on Human Calpain 1/NS1 (Column A) is < 3 µM; on Human Calpain 2/NS1 (Column B) it was < 3 µM; on Human Calpain 9/NS1 (Column C) it was < 3 µM; in assay [1] (setting [4]), < 10 µM; in assay [2] (Column E), > 25 µM.

With `CC(C)n1cc(C(=O)NC(Cc2ccccc2)C(=O)C(N)=O)c(-c2ccccc2F)n1` (centres unmarked) [Compound 472, N-(4-amino-3,4-dioxo-1-phenylbutan-2-yl)-3-(2-fluorophenyl)-1-isopropyl-1H-pyrazole-4-carboxamide], the IC50 at Human Calpain 1/NS1 is < 3 µM; on Human Calpain 2/NS1 it was < 3 µM; at Human Calpain 9/NS1, < 3 µM; in assay [1] (setting [3]), 10 to 25 µM; in assay [2], < 10 µM.

Consider `Cn1cc(C(=O)NC(Cc2ccccc2)C(=O)C(N)=O)c(-c2c(F)cccc2F)n1` (centres unmarked) [Compound 486, N-(4-amino-3,4-dioxo-1-phenylbutan-2-yl)-3-(2,6-difluorophenyl)-1-methyl-1H-pyrazole-4-carboxamide], for which the IC50 on Human Calpain 1/NS1 was < 3 µM; on Human Calpain 2/NS1, < 3 µM; at Human Calpain 9/NS1, < 3 µM; in assay [1] (setting [3]), 10 to 25 µM; in assay [2], < 10 µM.

As to `Cn1cc(C(=O)N[C@@H](Cc2ccccc2)C(=O)C(N)=O)c(-c2cccc(C#N)c2)n1` [Compound 185, (S)—N-(4-amino-3,4-dioxo-1-phenylbutan-2-yl)-3-(3-cyanophenyl)-1-methyl-1H-pyrazole-4-carboxamide], the IC50 on Human Calpain 1/NS1 (Column A) was > 10 µM; on Human Calpain 2/NS1 (Column B), 3 to 10 µM; on Human Calpain 9/NS1 (Column C), 3 to 10 µM; in assay [1] (setting [4]) it was > 25 µM; in assay [2] (Column E), > 25 µM.

As for `Cc1cc(C(=O)N[C@@H](Cc2ccccc2)C(=O)C(N)=O)n(-c2cccc(-c3ccc(F)cc3)c2)n1` [Compound 103, (S)—N-(4-amino-3,4-dioxo-1-phenylbutan-2-yl)-1-(4′-fluoro-[1,1′-biphenyl]-3-yl)-3-methyl-1H-pyrazole-5-carboxamide], the IC50 is < 3 µM at Human Calpain 1/NS1 (Column A); < 3 µM on Human Calpain 2/NS1 (Column B); < 3 µM at Human Calpain 9/NS1 (Column C); > 25 µM in assay [1] (setting [4]); > 25 µM in assay [2] (Column E).

Regarding `Cc1c(F)cccc1-c1nsnc1C(=O)NC(Cc1ccccc1)C(=O)C(N)=O` (centres unmarked) [Compound 375, N-(4-amino-3,4-dioxo-1-phenylbutan-2-yl)-4-(3-fluoro-2-methylphenyl)-1,2,5-thiadiazole-3-carboxamide], the IC50 was < 3 µM on Human Calpain 1/NS1; < 3 µM at Human Calpain 2/NS1; < 3 µM on Human Calpain 9/NS1; < 10 µM in assay [1] (setting [3]); < 10 µM in assay [2].

`Cc1csc(-c2nn(C)cc2C(=O)NC(Cc2ccccc2)C(=O)C(N)=O)c1` (centres unmarked) [Compound 504, N-(4-amino-3,4-dioxo-1-phenylbutan-2-yl)-1-methyl-3-(4-methylthiophen-2-yl)-1H-pyrazole-4-carboxamide]: the IC50 was < 3 µM on Human Calpain 1/NS1; < 3 µM on Human Calpain 2/NS1; < 3 µM at Human Calpain 9/NS1; > 25 µM in assay [1] (setting [3]); > 25 µM in assay [2].

For the compound `Cn1ncc(C(=O)N[C@@H](Cc2ccccc2)C(=O)C(N)=O)c1-c1cnccn1` [Compound 174], the IC50 on Human Calpain 1/NS1 (Column A) is < 3 µM; on Human Calpain 2/NS1 (Column B) it was < 3 µM; at Human Calpain 9/NS1 (Column C), < 3 µM; in assay [1] (setting [4]), > 25 µM; in assay [2] (Column E), > 25 µM.

For `Cc1cc(C(=O)N[C@H](C=O)Cc2ccccc2)n(-c2ncccn2)n1` [Compound 341, (S)-3-methyl-N-(1-oxo-3-phenylpropan-2-yl)-1-(pyrimidin-2-yl)-1H-pyrazole-5-carboxamide], the IC50 is < 3 µM at Human Calpain 1/NS1; < 3 µM on Human Calpain 2/NS1; 3 to 10 µM at Human Calpain 9/NS1; > 25 µM in assay [1] (setting [3]); 10 to 25 µM in assay [2].

As to `NC(=O)C(=O)C(Cc1ccccc1)NC(=O)c1cn(C(F)F)nc1-c1cnccn1` (centres unmarked) [Compound 581, N-(4-amino-3,4-dioxo-1-phenylbutan-2-yl)-1-(difluoromethyl)-3-(pyrazin-2-yl)-1H-pyrazole-4-carboxamide], the IC50 at Human Calpain 1/NS1 is < 3 µM; on Human Calpain 2/NS1, < 3 µM; on Human Calpain 9/NS1, < 3 µM; in assay [1] (setting [3]), > 25 µM; in assay [2] it was 10 to 25 µM.

In the case of `O=CC(Cc1ccccc1)NC(=O)c1cn(C(F)F)nc1-c1ccccc1` (centres unmarked) [Compound 396, 1-(difluoromethyl)-N-(1-oxo-3-phenylpropan-2-yl)-3-phenyl-1H-pyrazole-4-carboxamide], the IC50 was < 3 µM at Human Calpain 1/NS1; < 3 µM at Human Calpain 2/NS1; < 3 µM at Human Calpain 9/NS1; < 10 µM in assay [1] (setting [3]); 10 to 25 µM in assay [2].
